The values that follow come from paper PMC4912218, “Targeted metabolomics of Gammarus pulex following controlled exposures to selected pharmaceuticals in water” (The Science of the Total Environment, 2016).

One series deals with Gammarus pulex. Description: in vivo. Conditions: 24 h, AFW, 15 °C; * = LC50 is above solubility. Here is the method:
(§1) From these toxicity profiles the NOAEL and the LOAEL were determined. Exposure experiments were performed in Pyrex® beakers, each containing 200 mL of AFW at 15 °C and ten adult animals (> 5 mg wet weight, ww). Live/dead animals were counted after 24 h by gently prodding and observing movement of appendages. The pharmaceutical concentrations tested were in the range of 0.01 to 250 mg L^− 1. […] Concentrations where 100, 50 and 0% of the animals died were repeated in duplicate or triplicate.

Details of series [1]: method as in Drugbank. Conditions: ref Drugbank, cited from earlier work.
A further series deals with Thamnocephalus platyurus. Conditions: ref Kim et al., 2009; cited from earlier work.
A further series is described as follows: in vivo. Conditions: in vivo. Here is the method:
as §1

Values after ≈ are worked out from the molar mass of the structure shown. Counter-ions that a name gives are not always drawn. Like-named read-outs stand apart in the source and are kept apart here. Where only a bound is given, the exact number is not on record here.

Take `COc1cc(Cc2cnc(N)nc2N)cc(OC)c1OC` [Trimethoprin]: the “24 h- LC50 G. pulex (present study)” value in the series on Gammarus pulex was more than 200 µg/mL. The Water solubility in series [1] is 400 mg/L.
On to `NC(=O)N1c2ccccc2C=Cc2ccccc21` [Carbamazepine], for which the “24 h- LC50 T. platyurus” value with Thamnocephalus platyurus is more than 100 µg/mL. The same molecule displayed a median lethal concentration (LC50) at 24 h in “in vivo” of more than 112 µg/mL.
In the case of `CN(C)CCC=C1c2ccccc2CCc2ccccc21` [Amitriptyline], in “in vivo”, the median lethal concentration (LC50) at 24 h is 41.8 µg/mL (≈ 150 µM).
With `CC(C)(Oc1ccc(CCNC(=O)c2ccc(Cl)cc2)cc1)C(=O)O` [Bezafibrate], the LC50 at 24 h in “in vivo” is more than 1 µg/mL. Besides, the Water solubility entry in series [1] was “Insoluble”.
With `O=C(Nc1ccc(Cl)cc1)Nc1ccc(Cl)c(Cl)c1` [Triclocarban], the LC50 at 24 h in “in vivo” was more than 10 µg/mL. Moreover, the Water solubility in series [1] (26 °C) is 10 (26 ºC) mg L^-1.
In the case of `COc1ccc2c(c1)c(CC(=O)O)c(C)n2C(=O)c1ccc(Cl)cc1` [Indomethacin], the “24 h- LC50 T. platyurus” value in the series with Thamnocephalus platyurus is 16.14 µg/mL. The molecule also came in with a 50% lethal concentration (LC50) at 24 h in the series “in vivo” (Gammarus pulex) of more than 0.93 µg/mL.
Consider `CC(C)Cc1ccc(C(C)C(=O)O)cc1` (stereo not shown) [Ibuprofen], for which the median lethal concentration (LC50) at 24 h in “in vivo” is 44 µg/mL (≈ 213 µM). Also, in series [1], the Water solubility was 100000 mg/L.
In the series “in vivo”, `O=C(O)c1ccccc1O` [Salicylic acid] displayed an LC50 at 24 h of 29.3 µg/mL (≈ 212 µM). For the same molecule, the Water solubility in series [1] is 1800 mg/L.
The molecule `Cc1ccc(Cl)c(Nc2ccccc2C(=O)O)c1Cl` [Meclofenamic acid] returned an LC50 at 24 h in “in vivo” of 4.54 µg/mL (≈ 15.3 µM). For the same molecule, the Water solubility in series [1] was 30 mg/L.
Take `O=C(O)Cc1ccccc1Nc1c(Cl)cccc1Cl` [Diclofenac, Sodium diclofenac]: the Water solubility in series [1] is 50000 mg/L.
Consider `CNC(=C[N+](=O)[O-])NCCSCc1ccc(CN(C)C)o1` [Ranitidine], for which the median lethal concentration (LC50) at 24 h in the series “in vivo” (Gammarus pulex) is more than 250 µg/mL. The Water solubility in series [1] was 1800 mg/L.
Turning to `CNCCC=C1c2ccccc2CCc2ccccc21` [Nortriptyline], the LC50 at 24 h in “in vivo” worked out at 18.9 µg/mL (≈ 71.6 µM). In addition, the Water solubility in series [1] is 0.874 mg/L.
For `CN(C)CCCN1c2ccccc2CCc2ccccc21` [Imipramine], the LC50 at 24 h in “in vivo” was 3.85 µg/mL (≈ 13.7 µM). Besides, in series [1], the Water solubility was 50000 mg/L.
In the case of `COCCc1ccc(OCC(O)CNC(C)C)cc1` (stereo not shown) [Metoprolol tartrate], in the series “in vivo” (Gammarus pulex), the 50% lethal concentration (LC50) at 24 h is more than 150 µg/mL.
In turn, `CC(=O)CC(c1ccccc1)c1c(O)c2ccccc2oc1=O` (stereo not shown) [Warfarin] registered an LC50 at 24 h in “in vivo” of more than 17 µg/mL.
In the series “in vivo”, `Cc1ccc(C)c(OCCCC(C)(C)C(=O)O)c1` [Gemfibrozil] showed a median lethal concentration (LC50) at 24 h of 9.84 µg/mL (≈ 39.3 µM). For the same molecule, in series [1], the Water solubility was less than 1000 mg/L.
For `CC(C(=O)O)c1ccc(-c2ccccc2)c(F)c1` (stereo not shown) [Flurbiprofen], the LC50 at 24 h in “in vivo” (Gammarus pulex) was more than 8 µg/mL.
For `CC(C)(Oc1ccc(Cl)cc1)C(=O)O` [Clofibric acid], the 50% lethal concentration (LC50) at 24 h in “in vivo” is more than 250 µg/mL. In series [1], the Water solubility was 582.5 mg/L.
